The record followed here is patent publication USRE47193E1, “Selectively substituted quinoline compounds” (EISAI R&D MANAGEMENT CO., LTD., priority 2013, dated 2019).

Structures are written as SMILES.

The test system of the test is Human TLR7/8. The experiment in a line: Human PBMC cell-based assay, TLR7/8 stimulus (RNA-Ig), cytokine ELISA. To be noted: primary human PBMC assay, TLR7/8 potency; ligand not given; read-out: Human PBMCs IC50. How it is done: Human PBMC Cell-Based Assay. Human peripheral blood mononuclear cells (PBMC) were isolated from freshly-drawn heparinized (10 USP units/ml, Hospira, Lakeforest, Ill.) healthy donor whole blood by density gradient (Histopaque® 1077, Sigma, Inc., St. Louis, Mo.). Briefly, 25 ml blood was diluted with 15 ml PBS (without Ca^2+, Mg^2+) in a 50 ml conical tube, and 12 ml Histopaque was underlaid using a spinal needle. Tubes were centrifuged for 45 minutes at 1200 rpm (350×g), and PBMC were collected from the buffy coat. Cells were then washed twice in PBS, and red blood cells were lysed by suspension in 5 ml ammonium chloride solution (1× Red Blood Cell Lysis Buffer, eBioscience) for 5 minutes at room temperature. After a final wash in PBS, PBMC were resuspended at a final concentration of 2×10^6/ml in RPMI-1640 media with L-glutamine (Invitrogen) and supplemented with 25 mM HEPES (Mediatech, Inc, Manassas Va.), 10% fetal bovine serum (HyClone, Logan, Utah), and Penicillin-Streptomycin-Glutamine (Mediatech) and plated at 100 ul/well (2×10^5 cells/well) in tissue culture treated 96-well plates (Falcon).
Antagonist compounds solubilized and serial diluted in 100% DMSO were added in triplicate to cells to yield a final concentration of 0.1% DMSO (v/v). Hydroxychloroquine (Acros Organics) solubilized and serial diluted in PBS was added in triplicate to cells. PBMC were incubated with antagonist compounds or HCQ for 30 minutes at 37° C., 5% CO2 before adding various TLR agonist reagents in 100 ul complete media per well as follows (final concentrations indicated): R848 (Resiquimod; GLSynthesis, Worcester, Mass.) at 1 uM for TLR7 and TLR8, LPS (Sigma) at 10 ng/ml for TLR4, and CpG-2216 (InvivoGen) at 5 ug/ml for TLR9. To prepare a TLR7/8 agonist that mimics RNA-containing auto-antibody immune complexes in lupus patients, a 26-mer RNA with a sequence derived from human U1 snRNA stem loop IV [(sequence: […]-[…] (SEQ ID NO: 2) with phosphorothioate backbone] was synthesized (Dharmacon, Inc., Lafayette, Colo.), which has been shown previously to be a potent TLR7 and TLR8 agonist. This RNA molecule was diluted to 2.5 μM in serum-free RPMI, and mouse anti-human single stranded DNA monoclonal antibody (MAB3034, Millipore, Inc., Billerica, Mass.), which also cross-reacts with RNA, was added at a 1:25 dilution or at 1 ug/ml. The resulting “RNA-Ig” stimulus was incubated at room temperature for 15-30 minutes before adding to cells. PBMC were incubated with the various TLR agonists for 20 hours at 37° C., 5% CO2. Cell culture supernatants were collected, and levels of various human cytokines were assessed as indicated by standard ELISA procedure according to the manufacturer's recommended protocol (BD Biosciences, Inc., San Diego, Calif.). In a subsequent assay (Table 6) the ability of ER-899742 to block stimulation of normal PBMC by various TLR7/8 ligands, but not DNA-mediated activation of TLR9, was examined. In this assay cells were plated at 1×10^5 cells/well in 100 ul in 96-well plates.
On the technique in general: In an ELISA, binding on a coated surface is turned into a signal by an enzyme label.

What is called IC50 is the midpoint of a concentration-inhibition curve. For the molecule `CC1CCC(NCC2CN(c3ccc(C#N)c4ncccc34)CC(C)O2)CC1` (mixture of isomers) [ER-887442], the IC50 amounted to 47 nM. The result for `N#Cc1ccc(N2CCOC(CCl)C2)c2cccnc12` (centres unmarked) [ER-879570] reads 113 nM; that for `CC(=O)NC[C@H]1CN(c2ccc(C#N)c3ncccc23)C[C@@H](C)O1` [ER-879689], 1240 nM; that for `C[C@@H]1CN(c2ccc(C#N)c3ncccc23)C[C@H](CN)O1` [ER-884884], 204 nM. The result for `CCOCC1CN(c2ccc(C#N)c3ncccc23)CC(C)O1` (centres unmarked) [ER-885807] reads 331 nM; that for `CCC[C@H]1CN(c2ccc(C#N)c3ncccc23)C[C@@H](C)O1` [ER-886131], 98 nM; that for `C[C@H]1CN(c2ccc(C#N)c3ncccc23)C[C@@H](CF)O1` [ER-886133], 127 nM. Consider `C[C@H]1CN(c2ccc(C#N)c3ncccc23)C[C@@H](CCl)O1` [ER-886134], for which the IC50 worked out at 277 nM. As to `CC(C(=O)NC[C@H]1CN(c2ccc(C#N)c3ncccc23)C[C@@H](C)O1)c1ccccc1` (some centres unmarked) [ER-886360], the half-maximal inhibitory concentration (IC50) stood at 486 nM. The same measure for `Cc1ccc(OC[C@H]2CN(c3ccc(C#N)c4ncccc34)C[C@@H](C)O2)cc1` [ER-886516]: 56 nM; for `C[C@@H]1CN(c2ccc(C#N)c3ncccc23)C[C@H](COc2ccc(F)c(F)c2)O1` [ER-886605]: 21 nM; for `C[C@@H]1CN(c2ccc(C#N)c3ncccc23)C[C@H](COc2cccc(F)c2)O1` [ER-886606]: 15 nM. The same measure for `Cc1nc2cc(NC[C@H]3CN(c4ccc(C#N)c5ncccc45)C[C@@H](C)O3)ccc2n1C` [ER-886608]: 1 nM; for `CCn1c(C)nc2cc(NC[C@H]3CN(c4ccc(C#N)c5ncccc45)C[C@@H](C)O3)ccc21` [ER-886609]: 4 nM.

As for `CC1CN(c2ccc(C#N)c3ncccc23)CC(CNc2ncccn2)O1` (centres unmarked) [ER-886787], the IC50 came to 76 nM.

`Cc1ccnc(NCC2CN(c3ccc(C#N)c4ncccc34)CC(C)O2)c1` (centres unmarked) [ER-886853]: the concentration for half-maximal inhibition (IC50) was determined as 4 nM.

For the molecule `COc1ccc(NC[C@H]2CN(c3ccc(C#N)c4ncccc34)C[C@@H](C)O2)nc1` [ER-886855], the concentration for half-maximal inhibition (IC50) stood at 34 nM.

Take `CC1CN(c2ccc(C#N)c3ncccc23)CC(CN2CCCC2C)O1` (centres unmarked) [ER-886856]: the IC50 was 111 nM. The same measure for `COc1cccc(NC[C@H]2CN(c3ccc(C#N)c4ncccc34)C[C@@H](C)O2)n1` [ER-886859]: 107 nM; for `C[C@@H]1CN(c2ccc(C#N)c3ncccc23)C[C@H](CNc2ccnn2-c2ccccc2)O1` [ER-886860]: 240 nM. As to `CC1CN(c2ccc(C#N)c3ncccc23)CC(CN2CCCC2CO)O1` (centres unmarked) [ER-886866], the half-maximal inhibitory concentration (IC50) is 50 nM. The result for `C[C@@H]1CN(c2ccc(C#N)c3ncccc23)C[C@H](CN2CC[C@@H](O)C2)O1` [ER-886867] reads 34 nM.

`CC1CCN(CC2CN(c3ccc(C#N)c4ncccc34)CC(C)O2)C1` (centres unmarked) [ER-886868]: the IC50 came out at 50 nM. The result for `CC1CN(c2ccc(C#N)c3ncccc23)CC(CN2C(C)CCCC2C)O1` (centres unmarked) [ER-886950] reads 114 nM. The same measure for `CC1CN(c2ccc(C#N)c3ncccc23)CC(CN2CCCC(O)C2)O1` (centres unmarked) [ER-886951]: 79 nM; for `CC1CN(c2ccc(C#N)c3ncccc23)CC(CN2CCCCC2C)O1` (centres unmarked) [ER-886957]: 17 nM; for `CCC1CCCCN1CC1CN(c2ccc(C#N)c3ncccc23)CC(C)O1` (centres unmarked) [ER-886958]: 34 nM. The result for `CC1CCN(C[C@H]2CN(c3ccc(C#N)c4ncccc34)C[C@@H](C)O2)CC1` [ER-887141] reads 49 nM; that for `CC1CCCC(NCC2CN(c3ccc(C#N)c4ncccc34)CC(C)O2)C1` (centres unmarked) [ER-887146], 38 nM; that for `C[C@@H]1CN(c2ccc(C#N)c3ncccc23)C[C@H](CNc2cc(-c3ccccc3)ccn2)O1` [ER-887252], 2 nM.

As to `CC1CN(CC2CN(c3ccc(C#N)c4ncccc34)CC(C)O2)C(C)CN1` (centres unmarked) [ER-887260], the IC50 was 4 nM. The result for `CC1CN(c2ccc(C#N)c3ncccc23)CC(CN2CC(O)CC2CO)O1` (centres unmarked) [ER-887262] reads 103 nM. The result for `C[C@@H]1CN(c2ccc(C#N)c3ncccc23)C[C@H](CNc2cccc(-c3ccccc3)n2)O1` [ER-887589] reads 36 nM; that for `N#Cc1ccc(N2CCOC(CNc3ccccn3)C2)c2cccnc12` (centres unmarked) [ER-887612], 53 nM.

For the molecule `Cc1cc(C=O)cc(-c2ccc(C#N)c3ncccc23)c1` [ER-888200], the half-maximal inhibitory concentration (IC50) stood at 16 nM. In the case of `C[C@@H]1CN(c2ccc(C#N)c3ncccc23)C[C@H](CN2CCCCC2)O1` [ER-888202], the 50% inhibitory concentration (IC50) was found to be 8 nM. Take `C[C@@H]1CN(c2ccc(C#N)c3ncccc23)C[C@H](CN2CCOCC2)O1` [ER-888203]: the IC50 stood at 105 nM. For the molecule `C[C@@H]1CN(c2ccc(C#N)c3ncccc23)C[C@H](CN2C[C@@H](C)O[C@@H](C)C2)O1` [ER-888204], the IC50 stood at 22 nM. The result for `CC1CN(CC2CN(c3ccc(C#N)c4ncccc34)CC(C)O2)CC(CO)O1` (centres unmarked) [ER-888205] reads 40 nM; that for `CC1CN(c2ccc(C#N)c3ncccc23)CC(CN2CCN(c3ccccn3)CC2)O1` (centres unmarked) [ER-888285], 14 nM. The result for `CC1CN(c2ccc(C#N)c3ncccc23)CC(CN2CCN(c3ccncc3)CC2)O1` (centres unmarked) [ER-888286] reads 223 nM; that for `C[C@@H]1CN(c2ccc(C#N)c3ncccc23)C[C@H](CNc2ccc3cccnc3n2)O1` [ER-888289], 11 nM; that for `C[C@@H]1CN(c2ccc(C#N)c3ncccc23)C[C@H](CN2CCN(C(N)=O)CC2)O1` [ER-888330], 154 nM. The result for `CC1CN(c2ccc(C#N)c3ncccc23)CC(CN2CCC(C3CCCCC3)CC2)O1` (centres unmarked) [ER-888479] reads 91 nM; that for `C[C@@H]1CN(c2ccc(C#N)c3ncccc23)C[C@H](Cn2cc(C3CCCCC3)nn2)O1` [ER-888603], 7 nM; that for `C[C@@H]1CN(c2ccc(C#N)c3ncccc23)C[C@H](Cn2cc(-c3ccccc3)nn2)O1` [ER-888604], 6 nM. On to `Cc1cc(CN2CCC(O)CC2)cc(-c2ccc(C#N)c3ncccc23)c1` [ER-888645], for which the IC50 is 47 nM.

On to `Cc1cc(CN2CCC(N(C)C)CC2)cc(-c2ccc(C#N)c3ncccc23)c1` [ER-888646], for which the concentration for half-maximal inhibition (IC50) was determined as 3 nM. The result for `Cc1cc(CN2CCN(C)CC2)cc(-c2ccc(C#N)c3ncccc23)c1` [ER-888647] reads 12 nM; that for `CCc1cnc(NC[C@H]2CN(c3ccc(C#N)c4ncccc34)C[C@@H](C)O2)nc1` [ER-888701], 18 nM; that for `C[C@@H]1CN(c2ccc(C#N)c3ncccc23)C[C@H](CNc2cnccn2)O1` [ER-888896], 50 nM. The result for `Cc1cc(NC[C@H]2CN(c3ccc(C#N)c4ncccc34)C[C@@H](C)O2)n(C)n1` [ER-888977] reads 217 nM; that for `Cc1cc(CN2CCC(N3CCCCC3)CC2)cc(-c2ccc(C#N)c3ncccc23)c1` [ER-889504], 2 nM. As to `CC1CN(c2ccc(C#N)c3ncccc23)CC(CN2CCC(CO)CC2)O1` (centres unmarked) [ER-889557], the IC50 came to 85 nM. The same measure for `CC1CN(c2ccc(C#N)c3ncccc23)CC(CN2CCC(N3CCCC3)C2)O1` (centres unmarked) [ER-889571]: 1000 nM; for `CC1CN(c2ccc(C#N)c3ncccc23)CC(CN2CCC(NC(=O)c3cccnc3)CC2)O1` (centres unmarked) [ER-889728]: 21 nM.
